Patent publication US10226509B2, “Lymphangiogenesis inhibitors for cancer and for graft survival” (TUFTS UNIVERSITY, priority 2014, dated 2019)
Entries after “also recorded” stand apart in the source; their conditions may differ.

Key:
LEC spheroids = experiment: LEC sprouting assay: stimulation by galectins alone; assay type: cell-based, human
Experimental: LEC spheroids were generated by seeding primary LECs at passage 4 or 5 in each well of 384-well hanging-drop plates (3D Biomatrix) in complete EGM-2 MV medium containing 0.25% methyl cellulose according to the manufacturer's instructions (750 cells/well). After 18 hours, LEC spheroids were collected, resuspended in serum-free EBM-2 basal medium, and mixed with collagen solution (PureCol collagen, Advanced BioMatrix, 2.2 mg/ml in M199 medium, pH adjusted to 7.4 with NaHCO3 and NaOH). Aliquots of the LEC spheroid/collagen mixture (250 μl/well of 48-well plate) were incubated in the presence or absence of various test agents for 24 hr. At the end of the incubation period, spheroids were stained with Calcein AM (Invitrogen, 1 μg/mL, 37° C., and 30 min). Fluorescent images were acquired using the EVOS FL cell imaging system, pixels were inverted for better visualization and cumulative length of each sprout was calculated. Results were expressed as fold change compared to corresponding controls. It was observed that sprout lengths vary from passages to passages. Test agents used included thiodigalactoside (10 to 50 mM, Carbosynth), 3′-sialyl lactose (2 to 10 mM, Carbosynth), 6′-sialyl lactose (2 to 10 mM, Carbosynth), LY294002 (20 μM, Abeam), U0126 (20 μM, Abeam), PD0325901 (1 μM, Selleckchem), human VEGFR-3-Fc chimera (10 μg/ml, R&D), human VEGFR-2-Fc chimera (10 μg/ml, R&D), Avastin (10 μg/ml, bevacizumab, Genentech/Roche), human control IgG (10 μg/ml, Southern Biotech), anti-human podoplanin functional grade antibody (10 μg/ml, eBioscience), and rat IgG2a κ isotype control functional grade antibody (10 μg/ml, eBioscience).
To assess the effect of galectins on LEC sprouting, LEC spheroids were embedded in a collagen matrix and incubated with media containing various test agents. After 24 hours, the cumulative length of the sprouts for each spheroid was quantified by ImageJ. […] Multiple approaches were used to determine whether the stimulatory effect of Gal-8 on LEC sprouting was carbohydrate-dependent.

PDPN = target: T1, PDPN (Homo sapiens, UniProt Q86YL7); experiment: Affinity precipitation assay, PDPN; assay type: binding; details: galectin-conjugated agarose beads, LEC lysates
T1 construct: Within the whole cell lysate, an anti-PDPN-reactive 43-kDa component was detected; host or cells: primary lymphatic endothelial cells (LECs)
T1 sequence (Q86YL7 23-162): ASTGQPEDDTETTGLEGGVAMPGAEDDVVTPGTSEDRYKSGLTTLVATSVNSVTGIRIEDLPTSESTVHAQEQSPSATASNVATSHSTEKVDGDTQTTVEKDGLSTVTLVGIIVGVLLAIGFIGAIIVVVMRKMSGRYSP
Experimental: Five mg of plant lectins (Vector Labs) and galectins were conjugated to 330 mg of Pierce® NHS-activated agarose dry resin in accordance with the manufacturer's instructions (Thermo Scientific). Primary LECs (Lonza) were lysed in Triton lysis buffer (20 mM Tris-HCl, pH 7.4; 150 mM NaCl; 0.5% Triton X-100 with protease inhibitor cocktail). LEC lysates (250 μg in 500 μL lysis buffer supplemented with 10 mM MgCl2) were incubated with 40 μL (50% slurry) of agarose-conjugated lectins (4° C., overnight). Beads were pelleted by centrifugation at 3000 rpm for 1 min. Non-specific binding proteins were removed by washing the beads with Triton lysis buffer once and PBS twice. Supernatants were discarded; bound proteins were eluted by boiling the beads with 20 μL of 2× Laemmli sample buffer for 7 min, and examined by western blotting.
To determine whether PDPN binds to Gal-8 in a carbohydrate-dependent manner, LEC lysates were incubated with Gal-8-conjugated to agarose beads in the presence or absence of 0.1 M of lactose (an inhibiting sugar) or sucrose (a non-inhibiting sugar). Bound proteins were examined with total cell lysates (input) by western blot using an anti-PDPN antibody. To determine specificity of PDPN binding to Gal-8, LEC lysates were also incubated with agarose beads conjugated to Gal-1, Gal-3 and Gal-7. Within the whole cell lysate, an anti-PDPN-reactive 43-kDa component was detected (FIG. 7A).

EC50 (LEC spheroids; sprouting activity at 0.75 μM set at 100%, read-out: EC50 of galectin-8-mediated LEC sprouting): 520 nM | binding of PDPN (in words) (PDPN): binds
Substance: Gal-8: recombinant galectin-8, tandem-repeat type galectin with two different CRDs
promotion of LEC sprouting by the agent alone (in words) (LEC spheroids; 24 hours): concentration-dependent and was comparable to that of VEGF-C; also recorded: promotes LEC sprouting | Hill's coefficient (nH) of galectin-8-mediated LEC sprouting (LEC spheroids; dose-response curve): 3.7
